Test results taken from ChEMBL document CHEMBL1909046, “DrugMatrix in vitro pharmacology data”.

Assays:
Carbonic anhydrase 2 = Carbonic anhydrase 2 (Homo sapiens, UniProt P00918); experiment: DRUGMATRIX: Carbonic Anhydrase II enzyme inhibition (substrate: 4-Nitrophenyl acetate (4-NPA)); assay type: tissue-based, Erythrocyte; settings: erythrocyte; Not Active = under 50% inhibition at 10 µM
[1] = DRUGMATRIX: ATPase, Na+/K+ enzyme inhibition (substrate: ATP); assay type: tissue-based, Sus scrofa, Heart; settings: Not Active = under 50% inhibition at 10 µM
Estrogen receptor beta = Estrogen receptor beta (Homo sapiens, UniProt Q92731); settings: sf9; also: in other assays of this panel Not Active means under 50% inhibition at 10 µM
[2] = biological target: Delta-type opioid receptor (Homo sapiens, UniProt P41143); assay type: cell membranes, HEK293, Membrane; settings: hek293; also: in other assays of this panel Not Active means under 50% inhibition at 10 µM
Endothelin-1 receptor = biological target: T1, Endothelin-1 receptor (Homo sapiens, UniProt P25101); assay type: cell membranes, Membrane; settings: cho-k1; also: in other assays of this panel Not Active means under 50% inhibition at 10 µM
T1 sequence (P25101 whole entry): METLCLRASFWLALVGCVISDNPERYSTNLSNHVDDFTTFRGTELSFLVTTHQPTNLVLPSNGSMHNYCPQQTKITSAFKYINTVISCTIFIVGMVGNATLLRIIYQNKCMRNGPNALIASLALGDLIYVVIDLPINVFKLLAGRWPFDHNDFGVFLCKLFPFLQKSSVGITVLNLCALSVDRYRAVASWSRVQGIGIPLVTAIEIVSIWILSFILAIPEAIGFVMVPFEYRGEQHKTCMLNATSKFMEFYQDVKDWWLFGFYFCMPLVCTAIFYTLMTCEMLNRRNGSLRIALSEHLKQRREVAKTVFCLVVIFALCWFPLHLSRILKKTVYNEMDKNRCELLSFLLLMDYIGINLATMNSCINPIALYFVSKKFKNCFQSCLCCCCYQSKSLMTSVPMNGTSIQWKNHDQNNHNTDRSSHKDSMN

[3] = DRUGMATRIX: Serotonin (5-Hydroxytryptamine) 5-HT3 radioligand binding (ligand: [3H] GR-65630); assay type: cell membranes, Membrane; settings: hek293; Not Active = under 50% inhibition at 10 µM
[4] = biological target: Beta-3 adrenergic receptor (Homo sapiens, UniProt P13945); experiment: DRUGMATRIX: Adrenergic beta3 radioligand binding (ligand: [125I] Cyanopindolol); assay type: cell membranes, Membrane; settings: hek293; Not Active = under 50% inhibition at 10 µM
[5] = biological target: Platelet-activating factor receptor (Homo sapiens, UniProt P25105); assay type: tissue-based; also: in other assays of this panel Not Active means under 50% inhibition at 10 µM
D(4) dopamine receptor = biological target: T2, D(4) dopamine receptor (Homo sapiens, UniProt P21917); experiment: DRUGMATRIX: Dopamine D4.2 radioligand binding (ligand: [3H] Spiperone); assay type: cell membranes, Membrane; settings: cho-k1; Not Active = under 50% inhibition at 10 µM
T2 sequence (P21917 whole entry): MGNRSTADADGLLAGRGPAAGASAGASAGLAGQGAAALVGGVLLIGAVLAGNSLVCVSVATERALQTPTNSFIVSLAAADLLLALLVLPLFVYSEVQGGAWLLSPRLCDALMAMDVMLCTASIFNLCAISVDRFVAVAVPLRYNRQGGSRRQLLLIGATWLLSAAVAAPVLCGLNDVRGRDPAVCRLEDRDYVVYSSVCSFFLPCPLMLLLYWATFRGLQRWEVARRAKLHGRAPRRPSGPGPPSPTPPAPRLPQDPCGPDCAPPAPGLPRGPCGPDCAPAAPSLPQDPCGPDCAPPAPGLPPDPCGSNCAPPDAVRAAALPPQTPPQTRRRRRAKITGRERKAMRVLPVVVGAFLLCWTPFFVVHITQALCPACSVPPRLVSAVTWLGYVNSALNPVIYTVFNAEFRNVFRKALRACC

[6] = biological target: T3, Muscarinic acetylcholine receptor M4 (Homo sapiens, UniProt P08173); assay type: cell membranes, CHO-K1, Membrane; settings: cho-k1; also: in other assays of this panel Not Active means under 50% inhibition at 10 µM
T3 sequence (P08173 whole entry): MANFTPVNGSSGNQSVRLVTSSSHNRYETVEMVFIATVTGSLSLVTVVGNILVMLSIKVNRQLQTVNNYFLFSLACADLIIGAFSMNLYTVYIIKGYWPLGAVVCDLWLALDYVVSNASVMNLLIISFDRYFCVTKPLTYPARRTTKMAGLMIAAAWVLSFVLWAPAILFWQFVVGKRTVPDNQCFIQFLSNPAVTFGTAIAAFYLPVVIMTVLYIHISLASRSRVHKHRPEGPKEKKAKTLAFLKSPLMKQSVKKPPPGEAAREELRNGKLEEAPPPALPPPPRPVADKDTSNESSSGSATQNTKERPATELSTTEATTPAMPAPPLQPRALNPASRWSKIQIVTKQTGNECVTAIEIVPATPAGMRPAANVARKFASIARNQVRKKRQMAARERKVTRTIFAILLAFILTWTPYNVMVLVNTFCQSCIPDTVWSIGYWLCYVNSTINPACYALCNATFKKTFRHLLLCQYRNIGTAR

Cytochrome P450 2A6 = biological target: T4, Cytochrome P450 2A6 (Homo sapiens, UniProt P11509); settings: bti-tn-5b1-4; also: in other assays of this panel Not Active means under 50% inhibition at 10 µM
T4 sequence (P11509 whole entry): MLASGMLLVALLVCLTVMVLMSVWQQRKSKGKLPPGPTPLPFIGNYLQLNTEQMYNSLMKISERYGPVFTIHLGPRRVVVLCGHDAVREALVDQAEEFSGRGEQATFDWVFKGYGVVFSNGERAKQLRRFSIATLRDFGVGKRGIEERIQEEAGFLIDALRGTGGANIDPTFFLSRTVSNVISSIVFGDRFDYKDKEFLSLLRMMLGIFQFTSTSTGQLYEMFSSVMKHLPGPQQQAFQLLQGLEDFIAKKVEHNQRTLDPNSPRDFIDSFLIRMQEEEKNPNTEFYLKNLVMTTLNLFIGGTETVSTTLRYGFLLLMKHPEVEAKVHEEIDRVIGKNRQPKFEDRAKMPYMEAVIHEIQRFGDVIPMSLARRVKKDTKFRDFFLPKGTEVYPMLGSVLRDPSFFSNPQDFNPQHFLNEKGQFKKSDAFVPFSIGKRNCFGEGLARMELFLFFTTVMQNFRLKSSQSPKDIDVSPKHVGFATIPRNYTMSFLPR

Beta-3 adrenergic receptor, sequence (P13945 whole entry): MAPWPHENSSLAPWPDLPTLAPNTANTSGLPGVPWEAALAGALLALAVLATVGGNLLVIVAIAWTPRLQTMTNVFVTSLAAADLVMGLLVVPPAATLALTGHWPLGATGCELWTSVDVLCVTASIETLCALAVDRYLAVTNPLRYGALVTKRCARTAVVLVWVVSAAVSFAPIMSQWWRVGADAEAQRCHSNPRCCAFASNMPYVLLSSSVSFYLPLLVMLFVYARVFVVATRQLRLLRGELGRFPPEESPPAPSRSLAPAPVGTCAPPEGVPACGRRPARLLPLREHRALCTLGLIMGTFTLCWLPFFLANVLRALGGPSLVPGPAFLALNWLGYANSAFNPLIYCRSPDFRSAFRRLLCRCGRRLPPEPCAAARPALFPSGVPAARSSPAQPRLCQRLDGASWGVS
Delta-type opioid receptor, sequence (P41143 whole entry): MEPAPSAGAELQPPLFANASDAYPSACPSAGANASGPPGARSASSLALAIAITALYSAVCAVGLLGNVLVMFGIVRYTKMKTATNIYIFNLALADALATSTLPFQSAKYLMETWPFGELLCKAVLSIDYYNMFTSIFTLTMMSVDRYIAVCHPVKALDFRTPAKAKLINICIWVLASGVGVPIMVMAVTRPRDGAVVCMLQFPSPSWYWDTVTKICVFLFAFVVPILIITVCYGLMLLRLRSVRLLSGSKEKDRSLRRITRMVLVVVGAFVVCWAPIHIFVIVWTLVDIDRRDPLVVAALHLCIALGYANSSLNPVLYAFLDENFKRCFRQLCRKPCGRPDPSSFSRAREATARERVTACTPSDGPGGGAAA
Estrogen receptor beta, sequence (Q92731 whole entry): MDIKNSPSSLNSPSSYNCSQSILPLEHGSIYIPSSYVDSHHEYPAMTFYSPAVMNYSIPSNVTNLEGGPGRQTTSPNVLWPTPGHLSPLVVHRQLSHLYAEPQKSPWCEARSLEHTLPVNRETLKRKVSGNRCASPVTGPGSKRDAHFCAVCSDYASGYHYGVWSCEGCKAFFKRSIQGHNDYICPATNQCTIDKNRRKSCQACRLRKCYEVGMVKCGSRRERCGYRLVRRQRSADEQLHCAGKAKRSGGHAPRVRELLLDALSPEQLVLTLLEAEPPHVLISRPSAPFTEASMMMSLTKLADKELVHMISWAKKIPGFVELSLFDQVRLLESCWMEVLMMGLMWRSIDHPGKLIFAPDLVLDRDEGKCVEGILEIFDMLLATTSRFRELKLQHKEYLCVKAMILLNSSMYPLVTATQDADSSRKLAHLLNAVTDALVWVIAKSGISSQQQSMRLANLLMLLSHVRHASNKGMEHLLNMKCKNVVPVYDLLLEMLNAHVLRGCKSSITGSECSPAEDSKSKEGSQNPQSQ
Platelet-activating factor receptor, sequence (P25105 whole entry): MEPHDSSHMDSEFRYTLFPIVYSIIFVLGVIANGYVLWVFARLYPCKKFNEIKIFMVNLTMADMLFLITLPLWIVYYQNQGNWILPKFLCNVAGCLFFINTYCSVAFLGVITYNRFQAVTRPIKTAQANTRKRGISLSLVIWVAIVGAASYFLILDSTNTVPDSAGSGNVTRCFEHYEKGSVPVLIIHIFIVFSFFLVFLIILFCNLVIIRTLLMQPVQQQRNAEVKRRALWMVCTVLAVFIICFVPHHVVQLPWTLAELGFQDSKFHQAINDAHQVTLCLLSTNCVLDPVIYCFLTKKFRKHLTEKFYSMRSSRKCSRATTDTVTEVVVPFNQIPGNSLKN

CC[C@]1(O)C[C@@H]2CN(CCc3c([nH]c4ccccc34)[C@@](C(=O)OC)(c3cc4c(cc3OC)N(C)[C@H]3[C@@](O)(C(=O)OC)[C@H](OC(C)=O)[C@]5(CC)C=CCN6CC[C@]43[C@@H]65)C2)C1 [VINBLASTINE]
Not Active: IC50 (Carbonic anhydrase 2) | IC50 [1] | Ki [1] | IC50 (Estrogen receptor beta) | IC50 [2] | IC50 (Endothelin-1 receptor) | IC50 [3] | Ki [3] | IC50 [4] | IC50 [5] | IC50 (D(4) dopamine receptor) | IC50 [6] | IC50 (Cytochrome P450 2A6) | Ki (Cytochrome P450 2A6)

C[C@@H](N)[C@H]1CC[C@H](C(=O)Nc2ccncc2)CC1 [Y-27632]
Not Active: IC50 (Carbonic anhydrase 2) | IC50 [1] | Ki [1] | IC50 (Estrogen receptor beta) | IC50 [2] | IC50 (Endothelin-1 receptor) | IC50 [3] | Ki [3] | IC50 [4] | IC50 [5] | IC50 (D(4) dopamine receptor) | IC50 [6] | IC50 (Cytochrome P450 2A6) | Ki (Cytochrome P450 2A6)
